Where no end group is shown, it is not given here. [ ]: non-standard residue; d: D form. Nle = CCCC[C@H](N)C(=O)O
Key:
[1] = system: gemcitabine-treated mice; test: White blood cell counts in gemcitabine-treated mice (oral efficacy study); format: in vivo, C57Bl/6 mice; conditions: subcutaneous, 0.3 mg/kg daily for 21 days after 160 mg/kg gemcitabine; FIG. 1
Description: (§1) The female C57Bl/6 mice (7 per group), 6-8 weeks old, were treated with the formulations described above daily starting 1 day after intravenous injection with chemotherapy, 160 mg/kg gemcitabine. On days 1, 3, 7, 15 and 21 after chemotherapy administration, blood was taken under anesthesia from the saphenous vein to assess white blood cell, and platelet numbers. On day 22, the mice were euthanized and bone marrow collected to assess the number of colony forming units.
(§2) The mice were bled from the saphenous vein. The mice were anesthetized by placing the nose of the animals in a 50 ml conical tube containing cotton balls soaked with isoflurane (an inhaled anesthesia). […]
(§3) Twenty μl of blood was mixed with 180 μl of RBC lysing solution (0.83% NH4Cl, 10 mM EDTA, 0.5% NaHCO3). […] This mixture was vortexed and the number of WBC was evaluated by hematocytometer under light microscopy and the number of platelets was evaluated by hematocytometer under phase contrast microscopy.
(§4) In order to assess the oral efficacy, gemcitabine-treated mice were treated daily for 21 days with five treatments: 1) SQ dosed saline, 2) SQ dosed A(1-7) at 0.3 mg/kg, 3) SQ dosed NorLeu3-A(1-7) at 0.3 mg/kg, 4) orally dosed β-CD formulated A(1-7) at 0.3 mg/kg, or 5) orally dosed β-CD formulated NorLeu-A(1-7)) at 0.3 mg/kg. The effects of these treatments on peripheral blood counts were assessed.

[2] = system: gemcitabine-treated mice; test: Platelet counts in gemcitabine-treated mice (oral efficacy study); format: in vivo, C57Bl/6 mice; conditions: subcutaneous, 0.3 mg/kg daily for 21 days after 160 mg/kg gemcitabine; FIG. 3
Description: as §1, §2, §3, §4

Asp-Arg-Nle-Tyr-Ile-His-Pro (DR[Nle]YIHP) [NorLeu3-A(1-7), dosed subcutaneously as comparator]
number of circulating WBC [1]: increased the number of circulating WBC
circulating platelet numbers [2]: did not circulating platelet numbers

angiotensin (1-7) (DRVYIHP; Angiotensin 1-7; UniProt P01019 25-31, looked up, fragment) [A(1-7), Investigational Mas agonist peptide]
number of circulating WBC [1]: increased the number of circulating WBC
